Test results reported in patent US9707239B2, “Compounds that modulate oxidative stress” (vTv Therapeutics LLC, priority 2011, dated 2017).
“Also recorded” adds a separate entry of the source.

Experiments:
Keap1 = assay: HMOX1 induction after Keap1 silencing (shRNA); type: cell-based, human; details: NHLF cells, FIG. 6
Protocol: Normal human lung fibroblasts were plated in a 12-well tissue culture dish at 16,000 cells/well and allowed to attach overnight. Regular medium was then replaced with 200 μl of fresh growth medium containing 8 μg/ml hexadimethrine bromide (polybrene). Lentiviral transduction particles were then added in the following amounts: Control shRNA (1.1×10^7 TU/ml, Sigma, cat# SHC002V), 15 μl for an MOI of 10; KEAP-1 shRNA (6.3×10^6 TU/ml, Sigma, cat# SHCLNV-TRCN0000046092), 63 μl for an MOI of 20. After 4 hours in the cell culture incubator, another 200 μl of growth medium was added on top of the original volume. Cells were replenished the next day with fresh complete growth medium and were allowed to recover for 24 hours, after which selection medium was applied (complete medium with 1 μg/ml puromycin).
Another method of testing the role of the Nrf2 regulatory pathway on compound activity is to determine the effect of silencing Keap1 on HMOX1 gene expression. It is known that deleting Keap1 will result in the induction of Nrf2 dependent genes but not, to any significant degree, HMOX1. The proposed explanation for this observation is that HMOX1 requires the concomitant derepression of Bach1 activity and that this event is more dependent on active processes (e.g., heme binding, changes in redox potential of the cell, phosphorylation of Bach1, etc.). We therefore tested the ability of Compound 13 and tool compounds to induce HMOX1 in the presence of silencing of Keap1 in normal human lung fibroblasts.
Normal human lung fibroblasts were tested with DMSO, CoPP, Compound 13, and two derivatives including Compound 4 and Compound 8. An electrophile, Compound 1, was also included in the test set. […] On the other hand, induction of HMOX1 by the electrophile Compound 1 was inhibited.

rat HMOX1 mRNA = assay: HMOX1 mRNA induction in rat blood after oral gavage; type: in vivo; details: rats, oral gavage 5 or 25 mg/kg, over 5 hours, FIG. 11B
Protocol: (§1) Next, selected Bach1 modulators were tested for in vivo function. […] Rats were dosed with 5 mg/kg of compound by oral gavage. Compound levels in blood were determined by LC-MS (left panel). […] In a second experiment, Compound 8 activity was tested by determining the amount of HMOX1 mRNA induced in rat blood. Animals were dosed by oral gavage and blood drawn at the indicated times.

[1] = Compound levels in rat blood after oral gavage (LC-MS); type: in vivo; details: rats
Protocol: as §1

GADD45A = assay: mRNA expression (Quantigene Plex) in NHLF cells: GADD45A; type: cell-based, human; details: mRNA normalized to GAPDH, above DMSO treated cells
Protocol: (§2) Secondary growth of NHLF cells were used for all assays. Cell were thawed and then placed into culture in T225 flasks. The cells were grown to 80% confluency and harvested by washing once with HEPES buffered saline solution and then trypsinizing. Equal numbers (7×10^3 cells per well) of NHLF cells were plated in 96 well tissue culture plates (Corning). Cells were incubated overnight in FGM-2 medium prior to exposure to compound. Cells were treated with either DMSO or a compound as described below for 6 h. Preparation of cell lysates was carried out according to instructions using the Quantigene Reagent system 2.0 protocol (Panomics). mRNA induction was detected from cell lysate using the Quantigene Plex 2.0 Assay Kit (Panomics) on the Luminex platform (BIO-RAD). Expression of GAPDH mRNA was used as the internal control for the Quantigen Plex 2.0 Assay. The data in Tables 5 and 6 represents the fold change of target mRNA expression, normalized to control values, above DMSO treated cells.

NHLF cells [2] = assay: Cytoprotection of cisplatin (CDDP)-treated NHLF cells (propidium iodide staining); type: cell-based; details: NHLF cells, compound 24 hours prior to cisplatin exposure, FIG. 8
Protocol: A key outcome of Bach1 derepression and Nrf2 activation are the induction of cytoprotective genes. A method to test such cytoprotection is to assess the ability of a compound to protect normal human cells such as lung fibroblasts from toxicity due to cisplatin exposure. A model of cellular cytoprotection was established whereby normal human lung fibroblasts were treated with Bach1 modulators and then subsequently exposed to cisplatin. NHLF cells are very sensitive to cisplatin exposure; following a dose of 200 uM cisplatin, >90% of NHLF cells are propidium iodide positive, a measure of cell death.

ATF4 = assay: mRNA expression (Quantigene Plex) in NHLF cells: ATF4; type: cell-based, human; details: Table 5, 6 h, mRNA normalized to GAPDH, above DMSO treated cells
Protocol: as §2

ICAM = assay: mRNA expression (Quantigene Plex) in NHLF cells: ICAM; type: cell-based, human; details: mRNA normalized to GAPDH, above DMSO treated cells
Protocol: as §2

human Bach1 = assay: MARE controlled luciferase reporter gene assay in HepG2 cells with or without Bach1 expression; type: cell-based; details: transient transfection, with or without Bach1 expressing plasmid, FIG. 7
Protocol: The ability of Compound 13 to act in a manner similar to CoPP provides evidence for the hypothesis that Bach1 activity is being modulated by the compounds. […] To that end, expression vectors were prepared which contained the HMOX1 mARE promoter element recognized by both Bach1 and Nrf2. This element was placed in control of the reporter gene luciferase. Under conditions of transient transfection of HepG2 cells, the reporter has a low level of basal activity due to the relative ratio of Bach1 and Nrf2 found in the cell. Co-transfection with a Bach1 expressing plasmid leads to repression of luciferase activity. Therefore, one can test whether the compounds can increase the level of luciferase in the cells, thus overcoming Bach1 repression. […] Thus, the tested compound is able to overcome suppression by additional Bach1.

TXNRD1 = assay: mRNA expression (Quantigene Plex) in NHLF cells: TXNRD1; type: cell-based, human; details: mRNA normalized to GAPDH, above DMSO treated cells
Protocol: as §2

NHLF cells [3] = assay: ROS measurements (H2DCF-DA imaging); type: cell-based, human; details: 1 hr, cell-by-cell imaging, FIG. 3A/3B
Protocol: Secondary growth of NHLF cells were used for all assays. Cells were cultured as above. Cells were plated into 384-well BD-Optilux Plates at 2,000 cells/well and cultured overnight at 37° C. and 5% CO2. The following day, cell were washed and 2,7-dihydrodichlorofluorescin diacetate (H2DCF-DA), 10 μM ferric ammonium citrate (FAC), and Hoechst stain were added to cells for 30 min. The cells were washed once with PBS to remove any H2DCF-DA not taken up by cells. Test compounds were prepared in FBM-2 media at the desired concentrations. The plates and stain-treated cells were incubated with test compounds for 1 hr at 37° C. and 5% CO2. Following the incubation period, ROS generation was determined by imaging the cells on a GE INcell 1000 imager (Hoechst Ex. 360 Em. 535; H2DCF-DA 488 Ex. 480 Em. 535). ROS levels were determined and quantified using GE IN Cell Analyzer Software.
In addition to gene profiling, the requirement for ROS generation or chemical reactivity was tested. ROS generation was measured using an automated imaging technique. Compound 13 as well as two other compounds that were found in the screening set were tested in this experiment. Untreated NHLF cells, NHLF cells treated with the HMOX1 inducer CoPP (a negative control), and NHLF cells treated with curcumin or celestrol (positive controls) were included as controls. […] Further experiments were also conducted on chemical derivatives of Compound 13. In those experiments, all compounds tested were found not to induce an elevation of ROS levels in the cell (FIG. 3B). Thus, Compound 13 and related compounds represent a class of agents that elevate HMOX1 production without elevating ROS production.

NQO1 = assay: mRNA expression (Quantigene Plex) in NHLF cells: NQO1; type: cell-based, human; details: mRNA normalized to GAPDH, above DMSO treated cells
Protocol: as §2

HMOX1 = assay: mRNA expression (Quantigene Plex) in NHLF cells: HMOX1; type: cell-based, human; details: mRNA normalized to GAPDH, above DMSO treated cells
Protocol: as §2

HSPA6 = assay: mRNA expression (Quantigene Plex) in NHLF cells: HSPA6; type: cell-based, human; details: mRNA normalized to GAPDH, above DMSO treated cells
Protocol: as §2

Row | SMILES | HMOX1 induction in the presence of Keap1 silencing (Keap1) | HMOX1 mRNA induced in rat blood (rat HMOX1 mRNA) | compound levels in blood ([1]; 5 mg/kg (legend: 5 or 25 mg/kg) oral gavage, LC-MS, FIG. 11A) | oral bioavailability ([1]; oral gavage, FIG. 11) | GADD45A (fold induction) (GADD45A; Table 5, 6 h) | GADD45A (fold induction) (GADD45A; Table 6, 6 h) | protection against cisplatin toxicity (NHLF cells [2]) | ATF4 (fold induction) (ATF4) | ICAM (fold induction) (ICAM; Table 5, 6 h) | ICAM1 (fold induction) (ICAM; Table 6, 6 h) | luciferase activity of HMOX1 mARE reporter (human Bach1) | TXNRD1 (fold induction) (TXNRD1; Table 5, 6 h) | TXNRD1 (fold induction) (TXNRD1; Table 6, 6 h) | ROS production (in words) (NHLF cells [3]) | NQO1 (fold induction) (NQO1; Table 5, 6 h) | NQO1 (fold induction) (NQO1; Table 6, 6 h) | HMOX1 (fold induction) (HMOX1; Table 5, 6 h) | HMOX1 (fold induction) (HMOX1; Table 6, 6 h) | HSPA6 (fold induction) (HSPA6; Table 5, 6 h) | HSPA6 (fold induction) (HSPA6; Table 6, 6 h)
1 | COCCNC(=O)c1ccc2c(c1)nc(Nc1nc3ccc(OC(F)(F)F)cc3s1)n2C [Compound 8, 1-Methyl-2-(6-trifluoromethoxy-benzothiazol-2-ylamino)-1H-benzoimidazole-5-carboxylic acid (2-methoxy-ethyl)-amide] | unaffected in their ability to induce HMOX1 in the presence of Keap1 silencing; also recorded: behaves similarly to CoPP induction | able to induce HMOX1 mRNA in rat blood in a time and dose-dependent manner; also recorded: dose-dependent induction of rat HMOX1 mRNA in blood samples | micromolar levels; also recorded: present in blood sample following oral dosing | orally bioavailable | – | – | – | – | – | – | – | – | – | – | – | – | – | – | – | –
2 | C=Cc1c(C)c2cc3[nH]c(cc4nc(cc5nc(cc1[nH]2)C(C)=C5CCC(=O)[O-])C(CCC(=O)[O-])=C4C)c(C)c3C=C.[Co+2] [CoPP, Cobalt protoporphyrin IX, reference compound] | unaffected in their ability to induce HMOX1 in the presence of Keap1 silencing | – | – | – | 1.02 | 1.18 | protect the cells from CDDP-mediated toxicity | 0.85 | 1.1 | 0.56 | able to induce luciferase activity in the presence or absence of Bach1 protein expression; also recorded: can overcome this repression | 2.7 | 2.39 | did not | 3.5 | 4.22 | 48 | 49.64 | 0.9 | 0.86
